Results from publication PMC11952234, “Functional profiling of synthetic camel milk-derived peptides with implication in glucose transport and diabetes” (PLOS One, 2025).
Values joined by “and” are separate entries in the source; they are usually repeats but may differ in a detail not shown here. Identical values can stand only once. Like-named read-outs stand apart in the source and are kept apart here. Marks after values point to notes of the source that are not given here. Residues, ends and D or L forms follow the SMILES beside them.

What was measured:
[1] = molecular target: T1, insulin receptor (IR); interaction of IR-Rluc with IRS1-YFP in HEK293 cells (Homo sapiens, UniProt P06213); assay: BRET assay of IR activation (IR-Rluc/IRS1-YFP), single treatment, dose-response; format: cell-based; details: for Emax / BRET, % of the maximal response of insulin, Average: HEK293, 1 hour, minimal data set for Figure 1, average
T1 construct: expressed in transfected cells; host or cells: HEK293 cells, transient co-transfection; plasmids provided by Dr. Tarik Issad (Cochin Institute, Paris)
T1 sequence (P06213 28-758 limits assumed): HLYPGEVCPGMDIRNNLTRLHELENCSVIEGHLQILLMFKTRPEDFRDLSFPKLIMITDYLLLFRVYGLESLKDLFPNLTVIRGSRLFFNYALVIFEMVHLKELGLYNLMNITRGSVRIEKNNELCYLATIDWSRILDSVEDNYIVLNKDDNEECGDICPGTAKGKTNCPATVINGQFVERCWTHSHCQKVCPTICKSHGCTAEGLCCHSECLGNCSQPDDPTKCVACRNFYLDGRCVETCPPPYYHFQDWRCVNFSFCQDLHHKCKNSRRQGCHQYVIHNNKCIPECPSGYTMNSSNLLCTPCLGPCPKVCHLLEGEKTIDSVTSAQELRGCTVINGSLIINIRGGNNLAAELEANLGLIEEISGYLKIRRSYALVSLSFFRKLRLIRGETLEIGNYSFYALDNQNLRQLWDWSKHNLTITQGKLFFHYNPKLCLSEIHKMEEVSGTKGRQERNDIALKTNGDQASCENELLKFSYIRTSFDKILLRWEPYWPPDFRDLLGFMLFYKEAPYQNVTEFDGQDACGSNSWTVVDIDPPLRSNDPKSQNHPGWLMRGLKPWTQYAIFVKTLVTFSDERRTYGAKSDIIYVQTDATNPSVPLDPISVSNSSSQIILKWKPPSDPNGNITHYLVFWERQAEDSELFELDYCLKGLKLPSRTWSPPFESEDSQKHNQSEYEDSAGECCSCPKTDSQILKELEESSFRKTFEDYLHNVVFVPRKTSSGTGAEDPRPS
T1 sequence (P06213 763-1382 limits assumed): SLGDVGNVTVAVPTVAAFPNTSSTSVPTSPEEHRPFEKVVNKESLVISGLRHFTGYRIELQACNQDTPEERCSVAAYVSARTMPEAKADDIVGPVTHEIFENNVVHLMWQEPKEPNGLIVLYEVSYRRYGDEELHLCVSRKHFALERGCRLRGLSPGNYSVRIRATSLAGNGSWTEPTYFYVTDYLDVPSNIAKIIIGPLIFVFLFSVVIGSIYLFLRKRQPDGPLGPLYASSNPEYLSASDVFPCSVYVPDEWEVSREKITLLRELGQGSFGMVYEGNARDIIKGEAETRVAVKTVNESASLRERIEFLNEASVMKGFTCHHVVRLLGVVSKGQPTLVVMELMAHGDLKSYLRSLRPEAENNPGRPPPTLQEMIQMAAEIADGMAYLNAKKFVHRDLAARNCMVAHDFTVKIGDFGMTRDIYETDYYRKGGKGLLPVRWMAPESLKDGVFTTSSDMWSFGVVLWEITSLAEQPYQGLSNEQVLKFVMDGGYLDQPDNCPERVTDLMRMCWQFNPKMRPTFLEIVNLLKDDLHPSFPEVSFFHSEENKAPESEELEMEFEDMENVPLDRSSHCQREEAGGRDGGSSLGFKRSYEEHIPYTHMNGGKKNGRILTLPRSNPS
Method: (§1) HepG2 and HEK293 cells were maintained at 37°C, 5% CO2 in complete RPMI and Dulbecco’s modified Eagle’s medium (DMEM), respectively, containing 0.3 mg/ml glutamine, 100 IU/ml penicillin, and 100 µg/ml streptomycin) supplemented with 10% fetal calf serum (Gibco, Carlsbad, CA, USA). The transient transfection in HEK293 cells was carried out in 75 cm flask containing 10^7 cells using Lipofectamine 2000 and 5 µg of IR-Rluc and 5 µg of IRS1-YFP (for BRET and phosphorylation experiments) as previously described. All assays were performed 48 hours post-transfection.
(§2) BRET technology was used for IR activation and its interaction with IRS1 as previously described. […] Following treatments, 10 μl of Coelenterazine h was added to a final concentration of 5 µ M and BRET measurements were carried out using the Tristar 2 multi-label plate reader (Berthold, Germany), allowing luminescence recording and signal integration at 480 nm and 540 nm.
(§3) Statistical analyses were performed statistical significance between the different treatments and conditions as indicated in the figures and tables and their captions. […] The significance is indicated in the figures by stars (****p-value < 0.0001, ***p-value < 0.001, ** p-value < 0.01, * p-value < 0.05), and the absence of stars means non-significant (p-value > 0.05). However, the two-way ANOVA was used for multiple comparisons to determine the statistical significance between the different peptides when compared to each other in the different assays as described in the tables.

[2] = system: insulin receptor (IR); insulin-induced IR-Rluc/IRS1-YFP BRET in HEK293 cells; assay: BRET assay of IR activation, peptides combined with insulin; format: cell-based, human; details: for insulin-induced BRET, % of insulin's response in the vehicle, Average: Average of Experiments 1-7; for insulin-induced BRET, % of insulin's response in the vehicle, Average / insulin-induced BRET, % of insulin's response in the vehicle / % of maximal BRET (insulin-induced): 1 μM insulin + 0.1 mg/ml peptide; for insulin-induced BRET, % of insulin's response in the vehicle, Average / insulin-induced BRET, % of insulin's response in the vehicle: HEK293, minimal data set for Figure 2; for % of maximal BRET (insulin-induced): 1 hour, 37°C, % of insulin's response in the vehicle taken as 100%, mean ± SD of five to seven independent experiments in triplicate; for profile on insulin-dependent BRET response in combined treatment (in words): compared to insulin alone (Vehicle)
Method: as §1, §2
as §3, with “For BRET, the data were normalized by taking as 100% of the maximal insulin-induced BRET signal in the vehicle and analyzed using GraphPad Prism software (San Diego, CA, USA). Statistical” for “Statistical”, “tables. In this case, the different letters indicate statistically significant effects (p-value < 0.05), while the same letters indicate no significant difference between the different treatments compared to each other.” for “tables.”

[3] = system: IR phosphorylation (pIR-Tyr1334) in HepG2 cells; assay: IR phosphorylation by western blot in HepG2 cells; format: cell-based, human; details: 10 minutes, 37°C
Method: (§4) Following treatment, cells were then lysed with RIPA lysis buffer and thereafter centrifuged at 12000 × g for 30 minutes. Thereafter, the extracted cell lysate proteins were quantified using the bicinchoninic acid (BCA) protein assay. To examine the phosphorylation status of IR and AKT, 30-40 μg of proteins were loaded on 10% SDS-PAGE gel followed by western blot using the following antibodies: the mouse monoclonal anti-phospho-IR (pIR-Tyr1334)(1:1000 dilution) and the mouse monoclonal anti-phospho-AKT (pAKT-S473)(1:2000 dilution) as previously described. The corresponding total proteins loaded were also analyzed in parallel using the specific antibodies against the native forms of the different proteins. Densitometry analysis of the different western blots was performed using Image Studio Version 5.2 software from LICOR (Lincoln, Nebraska, USA).

[4] = system: HepG2 cells; assay: Glucose uptake assay (Glucose Uptake-Glo) in HepG2 cells; format: cell-based, human; details: 1 hour, 37°C; for glucose uptake, specific luminescence signal, Average: Average of Experiments 1-5, HepG2, 0.1 mg/ml peptide or 1 μM insulin, minimal data set for Figure 5; for % of glucose uptake: HepG2 cells, 0.1 mg/ml peptide or 1 μM insulin, % of insulin's response taken as 100%, mean ± SD of five independent experiments in triplicate
Method: Glucose uptake in HepG2 cells was carried out using Glucose Uptake-Glo Assay (Promega). For this, cells seeded in a 96-well white plate (50,000 cells/well) were first washed with PBS and starved in phenol red-, glucose-, and serum-free medium (Dulbecco’s modified Eagle’s medium containing 0.01 mM HEPES, 0.3 mg/ml glutamine, 100 IU/ml penicillin, and 100 µg/ml streptomycin). […] The treatment was removed, and the cells were washed once with PBS and then incubated with 50 μL/well of freshly prepared 2-deoxyglucose (500 μM) for 10 minutes at room temperature. The uptake process was stopped and neutralized, followed by the addition of 50 μl/well of 2-deoxyglucose-6-phosphate (2DG6P) detection reagent and incubation for 15-60 minutes at room temperature. The glucose-6-phosphate dehydrogenase (G6PDH) oxidizes 2DG6P to 6-phosphodeoxygluconate (6PDG) and reduces NADP + to NADPH. The reductase uses NADPH to convert the proluciferin to luciferin, which is then used by Ultra-Glo™ recombinant luciferase to produce luminescence. This luminescence, proportional to the amount of 2-deoxyglucose transported inside the cells upon treatment, was then measured using a 0.3–1 second integration on GloMax® Discover luminometer according to Glucose Uptake-Glo™ protocol.

[5] = system: AKT phosphorylation (pAKT-S473) in HepG2 cells; assay: AKT phosphorylation by western blot in HepG2 cells; format: cell-based, human; details: 10 minutes, 37°C
Method: as §4

[6] = HEK293, read-out: BRET, % of the maximal response of insulin, Average, peptide 0.001 mg/ml, 37°C
[7] = HEK293, read-out: BRET, % of the maximal response of insulin, Average, peptide 0.005 mg/ml, 37°C
[8] = HEK293, read-out: BRET, % of the maximal response of insulin, Average, peptide 0.01 mg/ml, 37°C
[9] = HEK293, read-out: BRET, % of the maximal response of insulin, Average, peptide 0.05 mg/ml, 37°C
[10] = HEK293, read-out: BRET, % of the maximal response of insulin, Average, peptide 0.1 mg/ml, 37°C
[11] = HEK293, read-out: BRET, % of the maximal response of insulin, Average, peptide 0.5 mg/ml, 37°C
[12] = HEK293, read-out: BRET, % of the maximal response of insulin, Average, peptide 1 mg/ml, 37°C
[13] = HEK293 cells, 0.1 mg/ml peptide + 1 μM insulin
[14] = 1 μM insulin + 0.1 mg/ml peptide
[15] = 0.1 mg/ml peptide, 3 independent experiments

CSCC[C@H](NC(=O)[C@H](Cc1c[nH]cn1)NC(=O)[C@H](CS)NC(=O)[C@@H]1CCCN1C(=O)[C@H](CC(C)C)NC(=O)[C@@H]1CCCN1C(=O)[C@@H]1CCCN1C(=O)[C@H](CC(C)C)NC(=O)[C@H](CS)NC(=O)[C@H](CS)NC(=O)[C@H](C)NC(=O)[C@@H](NC(=O)[C@H](C)NC(=O)[C@@H]1CCCN1)C(C)C)C(=O)O [Peptide P2] (H-PAVACCLPPLPCHM-OH; N-terminus and C-terminus assumed)
Emax [1, 6]: 6.9%
Emax [1, 7]: 19.9%
Emax [1, 8]: 32.1%
Emax [1, 9]: 47.3%
Emax [1, 10]: 59.2%
Emax [1, 11]: 68.7%
Emax [1, 12]: 58.9%
insulin-induced BRET, % of insulin's response in the vehicle, Average [2]: 52.0
insulin-induced BRET, % of insulin's response in the vehicle ([2]; Experiment 1): 76.0
insulin-induced BRET, % of insulin's response in the vehicle ([2]; Experiment 2): 33.7
insulin-induced BRET, % of insulin's response in the vehicle ([2]; Experiment 3): 14.3
insulin-induced BRET, % of insulin's response in the vehicle ([2]; Experiment 4): 58.1
insulin-induced BRET, % of insulin's response in the vehicle ([2]; Experiment 5): 54.3
insulin-induced BRET, % of insulin's response in the vehicle ([2]; Experiment 6): 70.5
insulin-induced BRET, % of insulin's response in the vehicle ([2]; Experiment 7): 56.8
% of maximal BRET (insulin-induced) ([2]; HEK293 cells): 52 ± 8% and 52 ± 8^b %
decrease of the insulin-dependent BRET response [2, 13]: ~ 50%
profile on insulin-dependent BRET response in combined treatment (in words) [2, 13]: antagonistic
insulin-induced IR phosphorylation, combined treatment (in words) [3, 14]: no inhibitory action
glucose uptake, specific luminescence signal, Average [4]: 1417300
% of glucose uptake [4]: 56 ± 9^b %

CC(C)[C@H](N)C(=O)N1CCC[C@H]1C(=O)N[C@@H](Cc1ccccc1)C(=O)O [Peptide P7, VPF] (H-Val-Pro-Phe-OH; N-terminus and C-terminus assumed)
Emax [1, 6]: 7.4%
Emax [1, 7]: 26.1%
Emax [1, 8]: 31.2%
Emax [1, 9]: 44.3%
Emax [1, 10]: 40.4%
Emax [1, 11]: 50.8%
Emax [1, 12]: 41.1%
insulin-induced BRET, % of insulin's response in the vehicle, Average [2]: 146.7
insulin-induced BRET, % of insulin's response in the vehicle ([2]; Experiment 2): 149.4
insulin-induced BRET, % of insulin's response in the vehicle ([2]; Experiment 3): 179.1
insulin-induced BRET, % of insulin's response in the vehicle ([2]; Experiment 4): 160.6
insulin-induced BRET, % of insulin's response in the vehicle ([2]; Experiment 6): 120.3
insulin-induced BRET, % of insulin's response in the vehicle ([2]; Experiment 7): 124.3
% of maximal BRET (insulin-induced) ([2]; HEK293 cells): 147 ± 11^d %
profile on insulin-dependent BRET response in combined treatment (in words) [2, 13]: potentiating
insulin-induced AKT phosphorylation, combined treatment (in words) [5, 14]: slightly potentiated
glucose uptake, specific luminescence signal, Average [4]: 2605600

MPVQA [Peptide P4]
% of maximal BRET ([1]; HEK293 cells co-expressing IR-Rluc and IRS1-YFP, single treatment 60 min, 37°C, maximal BRET increase of dose-response, % of insulin's response taken as 100%, mean ± SD of four independent experiments in triplicate): 13 ± 1^c %
BRET increase in single treatment (in words) ([1]; HEK293 cells, peptides applied alone): did not promote any significant BRET increase
BRET, % of the maximal response of insulin, Average ([1]; peptide 0.001 mg/ml, 37°C): 10.7
BRET, % of the maximal response of insulin, Average ([1]; peptide 0.005 mg/ml, 37°C): 9.6
BRET, % of the maximal response of insulin, Average ([1]; peptide 0.01 mg/ml, 37°C): 15.8
BRET, % of the maximal response of insulin, Average ([1]; peptide 0.05 mg/ml, 37°C): 14.2
BRET, % of the maximal response of insulin, Average ([1]; peptide 0.1 mg/ml, 37°C): 10.1
BRET, % of the maximal response of insulin, Average ([1]; peptide 0.5 mg/ml, 37°C): 15.2
BRET, % of the maximal response of insulin, Average ([1]; peptide 1 mg/ml, 37°C): 10.9
insulin-induced BRET, % of insulin's response in the vehicle, Average [2]: 113.5
insulin-induced BRET, % of insulin's response in the vehicle ([2]; Experiment 1): 76.2
insulin-induced BRET, % of insulin's response in the vehicle ([2]; Experiment 2): 79.6
insulin-induced BRET, % of insulin's response in the vehicle ([2]; Experiment 3): 121.9
insulin-induced BRET, % of insulin's response in the vehicle ([2]; Experiment 4): 113.1
insulin-induced BRET, % of insulin's response in the vehicle ([2]; Experiment 5): 93.8
insulin-induced BRET, % of insulin's response in the vehicle ([2]; Experiment 6): 168.9
insulin-induced BRET, % of insulin's response in the vehicle ([2]; Experiment 7): 141.2
% of maximal BRET (insulin-induced) ([2]; HEK293 cells): 114 ± 13^a %
profile on insulin-dependent BRET response in combined treatment (in words) [2, 13]: non-efficient
IR phosphorylation, single treatment (in words) [3, 15]: led to IR and AKT phosphorylation
AKT phosphorylation, single treatment (in words) [5, 15]: led to IR and AKT phosphorylation
glucose uptake, specific luminescence signal, Average [4]: 1978100
% of glucose uptake [4]: 78 ± 18^b %
